In patent CN117800914A, “一种抗SARS-CoV-2病毒奥密克戎突变种抑制剂” (Second Military Medical University SMMU, priority 2023, dated 2024):

System: SARS-CoV-2 mutant strains (SARS-CoV-2突变株)
Conditions: treatment of SARS-CoV-2 mutant strains; cited from earlier work

SMILES	clinical performance in treating SARS-CoV-2 mutant strains (in words)
CCC(CC)COC(=O)[C@H](C)N[P@](=O)(OC[C@H]1O[C@@](C#N)(c2ccc3c(N)ncnn23)[C@H](O)[C@@H]1O)Oc1ccccc1 [瑞德西韦]	不尽如人意
NC(=O)c1nc(F)c[nH]c1=O [法维拉韦]	不尽如人意

System: SARS-CoV-2 Omicron mutant BA.2 (SARS-CoV-2奥密克戎毒突变种BA.2)
Type: cell-based, SARS-CoV-2 Omicron BA.2
Conditions: 20 h

SMILES	IC50
CCC(C)C(=O)N[C@H](C)C(=O)O[C@H]1C/C=C/C=C/C=C/[C@H](OC)CC(=O)Nc2cc(ccc2F)CC/C=C(/C)[C@H](O)[C@H]1C (some centres unmarked) [B5]	200 nM
CO[C@H]1/C=C/C=C/C=C/C[C@H](OC(=O)[C@@H](C)NC(=O)CC(C)C)[C@H](C)[C@@H](O)/C(C)=C\CCc2cccc(c2)NC(=O)C1 [D1]	> 5000 nM
CO[C@H]1/C=C/C=C/C=C/C[C@H](O)[C@H](C)[C@@H](OC(=O)[C@@H](C)NC(=O)CC(C)C)/C(C)=C\CCc2ccc(F)c(c2)NC(=O)C1 [B3]	1190 nM
CO[C@H]1/C=C/C=C/C=C/C[C@H](OC(=O)[C@@H](C)NC(=O)CCC(C)C)[C@H](C)[C@@H](O)/C(C)=C\CCc2ccc(F)c(c2)NC(=O)C1 [B8]	1100 nM
CO[C@H]1/C=C/C=C/C=C/C[C@H](OC(=O)[C@@H](C)NC(=O)CC(C)C)[C@H](C)[C@@H](O)/C(C)=C\CCc2ccc(F)c(c2)NC(=O)C1 [B1]	300 nM
C/C=C(\C)C(=O)N[C@H](C)C(=O)O[C@H]1C/C=C/C=C/C=C/[C@H](OC)CC(=O)Nc2cc(ccc2F)CC/C=C(/C)[C@H](O)[C@H]1C [B6]	413 nM
COc1cc2cc(c1)NC(=O)C[C@@H](OC)/C=C/C=C/C=C/C[C@H](O)[C@H](C)[C@@H](OC(=O)[C@@H](C)NC(=O)CC(C)C)/C(C)=C\CC2 [C7]	825 nM
COc1cc2c(O)c(c1)NC(=O)C[C@@H](OC)/C=C/C=C/C=C/C[C@H](O)[C@H](C)[C@@H](OC(=O)[C@@H](C)NC(=O)CC(C)C)/C(C)=C\CC2 [C8]	400 nM
CO[C@H]1/C=C/C=C/C=C/C[C@H](OC(=O)[C@@H](C)NC(=O)CCC(C)C)[C@H](C)[C@@H](O)/C(CO)=C\CCc2cc(F)cc(c2)NC(=O)C1 [A6]	450 nM
